Paper PMC11045757, “Group 3 medulloblastoma transcriptional networks collapse under domain specific EP300/CBP inhibition” (Nature Communications, 2024)
“And” between values parts separate entries of the source, which are not always exact repeats. Equal entries are not always repeated. Where two headings read alike, the source gives them in different places.

How the values were obtained:
CBP bromodomain [1] = target: T1, CBP bromodomain (Homo sapiens, UniProt Q92793); assay: Isothermal titration calorimetry (ITC); format: binding; conditions: single ITC experiment, data fit ± SEM
T1 construct: CBP (residues 1081-1197); 6xHis (cleaved yes); host or cells: E. coli BL21 (DE3) RIL
Protocol: (§1) After 18 h growth, the culture was harvested by centrifugation at 6000 × g for 25 min and stored at -80 °C. Harvested cell pellets were re-suspended in 50 mM Na/K phosphate buffer (pH 7.4) containing 100 mM NaCl, 40 mM imidazole, 0.01% w/v lysozyme and 0.01% v/v Triton X-100 at 4 °C for 1 h, subjected to sonication and the lysate was clarified by centrifugation (30,000 × g for 45 min at 4 °C). Proteins were purified by FPLC at 4 °C using columns and chromatography materials from GE Healthcare. […] Proteins were purified to homogeneity by size exclusion chromatography using Superdex 75 equilibrated with elution buffer (50 mM HEPES pH 7.5, 100 mM NaCl, 2 mM DTT). […] Pool fractions were combined, concentrated to 10–12 mg/ml, and aliquots were flash-frozen in liquid N2 and stored at −80 °C.

EP300 bromodomain [2] = target: T2, EP300 bromodomain (Homo sapiens, UniProt Q09472); assay: Isothermal titration calorimetry (ITC); format: binding; conditions: single ITC experiment, data fit ± SEM
T2 construct: 6xHis (cleaved yes); host or cells: E. coli BL21 (DE3) RIL
T2 sequence (Q09472 1048-1161): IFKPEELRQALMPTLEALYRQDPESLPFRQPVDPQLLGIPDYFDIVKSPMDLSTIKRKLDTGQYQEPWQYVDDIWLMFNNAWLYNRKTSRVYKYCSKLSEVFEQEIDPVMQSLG
Protocol: as §1

BRD4-BD1 (BRD4-1) [3] = target: T3, BRD4-BD1 (BRD4-1) (Homo sapiens, UniProt O60885); assay: Isothermal titration calorimetry (ITC); format: binding
T3 construct: BRD4-BD1 (residues 44-168); 6xHis (cleaved yes); host or cells: E. coli BL21 (DE3) RIL
Protocol: At OD600 of 0.6, the culture was cooled down to 18 °C and induced with 0.1 mM IPTG. After 18 h growth, the culture was harvested by centrifugation at 6000 × g for 25 min and stored at -80 °C. Harvested cell pellets were re-suspended in 50 mM Na/K phosphate buffer (pH 7.4) containing 100 mM NaCl, 40 mM imidazole, 0.01% w/v lysozyme and 0.01% v/v Triton X-100 at 4 °C for 1 h, subjected to sonication and the lysate was clarified by centrifugation (30,000 × g for 45 min at 4 °C). Proteins were purified by FPLC at 4 °C using columns and chromatography materials from GE Healthcare. […] Proteins were purified to homogeneity by size exclusion chromatography using Superdex 75 equilibrated with elution buffer (50 mM HEPES pH 7.5, 100 mM NaCl, 2 mM DTT). All BRDs eluted as monomeric protein and were of crystallization grade quality (>95% purity as judged by SDS-PAGE). Pool fractions were combined, concentrated to 10–12 mg/ml, and aliquots were flash-frozen in liquid N2 and stored at −80 °C.
All experiments were conducted using an PEAQ-ITC calorimeter (Malvern Scientific). BRDs were buffer exchanged using PD10 columns (GE life sciences) into 50 mM HEPES pH7.5 and 100 mM NaCl (ITC buffer) before the experiment and concentrated to ∼10 mg/mL. Experiments were carried out in ITC buffer while stirring at 750 rpm through reverse titration. The microsyringe (40 μL load volume) was loaded with the protein sample (250–600 μM protein in ITC buffer) and inserted into the calorimetric cell (0.2 mL cell volume) consisting of compound (20–60 μM in ITC buffer). All titrations were conducted using an initial control injection of 0.2 μL followed by 13 identical injections (~3 μL per injection) with a duration of 2 s (per injection) and a spacing of 150 s between injections. The ratio of protein/compound was optimized to ensure complete saturation of the titrant before the final injection to ensure proper baseline determination. Data were corrected for dilution and analyzed using the MicroCal Origin software to determine the enthalpies of binding (ΔH) and binding constants as described. Thermodynamic parameters were calculated using the basic equation of thermodynamics (ΔG = ΔH − TΔS = −RTlnKB) where ΔG, ΔH and ΔS are the changes in free energy, enthalpy and entropy of binding, respectively. A single binding site model was used for all ligand-protein interactions.

EP300 bromodomain [4] = target: T2, EP300 bromodomain; assay: Differential scanning fluorimetry (DSF) thermal shift; format: binding; conditions: DSF; 5 μM protein, 100 μM compound; three independent experiments, average ± SD
Procedure, shortened: (§2)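 Thermal shift of 5 μM E. coli-expressed bromodomain with 100 μM compound in 50 mM HEPES pH 7.5, 150 mM NaCl, 2 mM DTT, 2% DMSO, 5X SYPRO Orange, quadruplicate. Heated 25→95 °C at 1 °C/min, fluorescence at 610 nm; ΔTm relative to DMSO reference wells.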

BRD4-BD1 (BRD4-1) [5] = target: T3, BRD4-BD1 (BRD4-1); assay: as above; format: binding; conditions: DSF; 5 μM protein, 100 μM compound; three independent experiments, average ± SD
Procedure, shortened: as §2

CBP bromodomain [6] = target: T1, CBP bromodomain; assay: as above; format: binding; conditions: DSF; 5 μM protein, 100 μM compound; three independent experiments, average ± SD
CBP bromodomain [7] = assay: as above; format: binding; conditions: ΔTm (CBP)/ΔTm(BRD4)
[8] = system: HDMB03 (HDMBO3) group 3 medulloblastoma cells; assay: CellTiter-Glo dose-response growth assay; format: cell-based
Protocol: (§3) CellTiter-Glo assay was performed as per the manufacturer’s instructions, at the noted timepoint after compound treatment or plating. For Kelly, TE617T, RhJT, NCIH2122, NCIH650 and 143B, 500 cells were plated in normal growth media per well in a 384-well plate (Corning). HDMB03 and MB002 cells were plated in growth media at 500 cells/well in a 384-well plate. […] Cells were incubated for the noted timepoints prior to performing CellTiter-Glo assay as per the manufacturer’s instructions, and reading plates on an Envision 2104 microplate reader.

HDMB03 (HDMBO3) cells = assay: ERCC spike-in RNAseq gene expression after 6 h treatment; format: cell-based; conditions: HDMBO3, replicate values, Supplementary Fig 6c
Protocol: (§4) First, we examined global changes in gene expression induced by drug treatment.
(§5) External RNA consortium control RNAs (ERCC, Ambion) were added directly to Trizol, based on cell number prior to RNA extraction. RNA samples were treated with DNAse I (Invitrogen) prior to recovery. Samples were obtained in biological triplicate. Total RNA was subjected to ribosomal RNA depletion prior to library preparation using the Truseq Stranded Total Library Prep Kit (Illumina) and sequencing on a Nextseq-500 (paired end, 100 bp reads).
(§6) Sequences were aligned using HISAT2 (version 2.1.0)[77] in paired-end mode with default parameters to build version hg19 of the human genome to which the sequences of the ERCC synthetic spike-in RNAs (http://tools.invitrogen.com/downloads/ERCC92.fa) had been added. Per-gene expression was quantified using htseq-count[78] with parameters “-i gene_id --stranded=reverse -f bam -m,” and version 87 of the canonical GRCh37 gene list from RefSeq to which ERCC coordinates were added. TPM-normalized (Transcripts Per Million) expression was then computed for each gene and synthetic ERCC spike-in RNA. Per-gene exon length was calculated across all exons of all isoforms of each gene. The standard TPM-normalization strategy is: normterm = sum of (read count * read length/exon length) across all genes. TPM = read count * read length/exon length * 1e6/normterm. We used a loess regression to normalize the TPM values across all samples of the batch, using only the spike-in values to fit the loess by the “affy” R package[79] with function loess.normalize. This function allowed us to perform loess regression on a matrix of TPM values and used the ERCC subset of data for fitting the loess. The output from this was a matrix of normalized TPM values controlled by ERCC spike-ins.
(§7) We used the elbow method[81] to determine the k value in k-means cluster analysis.
(§8) Dependency analysis was performed using the 22Q4 release of the DepMap dataset, comprising seven medulloblastoma cell lines: UW228, DAOY, ONS76, D458, D425, D283MED, D341MED. Dependency was defined as a Chronos gene effect score of <−0.5, and gene lists were filtered for dependency in >2/7 medulloblastoma cell lines. […] PANTHER was used to define gene annotations, with unknown annotations assigned using individual assessment using the Genecards.org resource.

MB002 cells = assay: as above; format: cell-based; conditions: MB002, replicate values, Supplementary Fig 6c
Protocol: as §4, §5, §6, §7, §8

[9] = system: MB002 group 3 medulloblastoma cells; assay: CellTiter-Glo dose-response growth assay; format: cell-based; conditions: day 3; read-out: d3 IC50 MB002
Protocol: as §3

T1 sequence (Q92793 1081-1197): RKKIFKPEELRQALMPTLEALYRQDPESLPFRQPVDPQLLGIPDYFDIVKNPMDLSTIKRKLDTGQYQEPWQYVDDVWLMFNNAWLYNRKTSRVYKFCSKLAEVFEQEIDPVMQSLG

Cc1noc(C)c1-c1ccc2c(c1)nc(C1CCCC(=O)N1)n2C1CCC(NC(=O)OC(C)(C)C)CC1 (stereo not shown) [Compound 1]
Kd (CBP bromodomain [1]): 1550 ± 600 nM
Kd (EP300 bromodomain [2]): 2300 ± 386 nM
reduction of activity against BRD4 (BRD4-BD1 (BRD4-1) [3]; relative to CCS1477): ~ 10 fold
Kd (BRD4-BD1 (BRD4-1) [3]; single ITC experiment, data fit ± SEM): 4210 ± 400 nM
∆Tm (°C) EP300 (EP300 bromodomain [4]): 7.3 ± 1.3 °C
∆Tm (°C) BRD4-1 (BRD4-BD1 (BRD4-1) [5]): 2.1 ± 0.06 °C
∆Tm (°C) CBP (CBP bromodomain [6]): 7.8 ± 0.43 °C
Ratio CBP/BRD4 of ∆Tm (CBP bromodomain [7]): 3.7
IC50 ([8]; Homo sapiens, HD-MB03, HDMBO3 G3MB cell growth, read-out: IC50 (nM) HDMBO3): > 100000 nM

Cc1sc2c(c1C)C(c1ccc(Cl)cc1)=N[C@@H](CC(=O)OC(C)(C)C)c1nnc(C)n1-2 [JQ1]
Normalized MYC expression (HDMB03 (HDMBO3) cells): 0.9657 and 0.7621 and 0.679
Normalized MYC expression (MB002 cells): 0.8713 and 1.005 and 0.8421
IC50 [9]: 107 nM
IC50 ([8]; day 3, read-out: d3 IC50 HDMBO3): 100 nM
